Test results reported in patent US20260287586A1, “METHODS OF TREATING TKI-RESISTANT AND SDH-DEFICIENT GIST” (priority 2023, published 2026).

Test system: GIST430 cell-derived xenograft
Experiment: Imatinib-resistant GIST430 cell-derived xenograft model
Format: in vivo
Conditions: olverembatinib 15 mg/kg every other day for 3 weeks; lisaftoclax 50 mg/kg daily for 3 weeks; alone or combined
From the text: Therefore, selective inhibition of BCL-2, aided by TKI-mediated MCL-1 and BCL-XL inhibition, markedly augmented cleavage of caspase-3 and poly(ADP-ribose) polymerase 1 (PARP-1), thus triggering apoptosis and subsequently enhancing antitumor effects.

Structure (SMILES): Cc1ccc(C(=O)Nc2ccc(CN3CCN(C)CC3)c(C(F)(F)F)c2)cc1C#Cc1cnc2[nH]ncc2c1 [Olverembatinib, olverembatinib]
- Tumor growth inhibition (TGI) rate: 57.6%
